Reference: patent US11147875B2, “Compositions, combinations and related methods for photoimmunotherapy” (priority 2015, dated 2021)
Read-outs that look alike come from different tables or passages of the source.

Experiments:
[1] = cited from earlier work
[2] = in vivo, 400 mg/m2; cited from earlier work
[3] = system: BxPC3 pancreatic cancer cells; test: In vitro PIT with panitumumab conjugates; assay type: cell-based; conditions: 10 μg/mL; for killing: 8 J/cm^2 at 690 nm
Method: The two conjugates were tested for efficiency in killing cells in an in vitro PIT assay using the pancreatic cancer line BxPC3. BxPC3 were seeded into 96-well white-wall plates (4,000 cells/well) the day before the experiment. Antibody conjugates were added to cells at a concentration of 10 μg/mL and were incubated for 2 hours at 37° C. Light of 690 nm was applied by a diode at a constant power output of 50 mW/cm^2. The illumination time was modulated to achieve the fluences 4 J/cm^2, 8 J/cm^2 or 16 J/cm^2. As a control, a group of cells was not irradiated with light (0 J/cm^2). To monitor the progression of cell death after light treatment, the conjugate containing medium was replaced by fresh medium containing CellTox Green (Promega), a dye that reports cell death based on compromised cell membrane integrity. Time dependent increase in cell death was observed over 24 hours.

human iDCs = test: DC activation after priming with PIT-killed FaDu cells and Poly I:C treatment; assay type: cell-based; conditions: 1 μg/mL overnight, DCs primed with FaDu cells PIT-killed with Cetuximab IRDye 700DX, vs no light controls
Method: FaDu cells grown in complete EMEM media were plated in 100 μL total volume per well in a 96 well tissue culture plate for adherence overnight. […] PIT cell killing was induced by illumination with a 690 nm laser light at a fluence of 12 J/cm^2. The controls represented wells corresponding to the groups not treated with light.
For co-culture, human iDCs (Astarte Biologics) from a healthy donor were directly added into the wells with PIT killed tumor cells and into control wells (non-PIT treated tumor cells). The co-cultures were then incubated for 48 hours at 37° C. in the CO2 incubator. The harvested DCs were then subjected to poly I:C treatment (1 μg/mL) for overnight. The cells were then detached using a non-enzymatic detachment solution.
The harvested cells from various treatment conditions were incubated with live/dead discrimination dye Zombie Green (BioLegend, 1:500) for 20 min at room temperature followed by washing with stain buffer. Cells were resuspended in stain buffer and human Fc blocking reagent (BD) was then added and cells were incubated for 20 min at room temperature. […]
Appropriate gating was performed while analyzing the data to exclude cell debris, and the data was analyzed with gating performed on live events. The results described below are based on median fluorescence intensity (MFI) data from each group which is plotted as fold increase over the no light controls.

A431 cells = test: EGF-IRDye 700DX light-dependent killing; assay type: cell-based; conditions: for light-dependent killing: 24 hours
Method: Photo-activated EGF-IR700 cell killing was assessed in A431 cells. A431 cells were seeded at 5000 cells per well in 96 well white clear bottom dishes one day prior to the experiment. The following day, the A431 cells were washed three times with EMEM supplemented with 1% Penicillin/Streptomycin (serum free media). The A431 cells were then washed one time with serum free media, then incubated with serum free media containing 1 μg/mL of EGF-IRDye 700DX for one hour at 4° C. or serum free media only. […] The cells were then washed one time with serum free media.
To induce IR700-dependent killing, the cells were then illuminated with a 690 nm laser with 32 J/cm^2 of light or protected from light (“no light”). Cell death was evaluated as described in Example 6 using CellTox Green. The normalized percentage of dead cells was calculated by subtracting all wells by the percentage of dead cells from the no light serum free media only control, dividing by EGF-IRDye 700DX at 32 J/cm^2 minus the no light serum free media only control, and multiplied 100.
The effect of EGF-IRDye 700DX pre-exposure to white light versus green light on photo-activated cell killing was also evaluated in A431 cells. EGF-IRDye 700DX was pre-exposed to different types of light and the effect of light treatment on photo-activated killing activity was evaluated. Five microliters of EGF-IRDye 700DX conjugate (DAR 2) was added per clear HPLC vial at a EGF-IRDye 700DX concentration of 1.14 mg/mL. The following conditions were tested: (1) the antibody-IRDye 700DX conjugate stored at 4° C. protected from light (“4° C.”, used as the control); (2) antibody-IRDye 700DX conjugate placed in a clear glass HPLC tube under a Halogen lamp at 2500 lux for 24 hrs (“white light”); (3) antibody-IRDye 700DX conjugate placed in a clear glass HPLC tube wrapped in aluminum foil to protect from light exposure under Halogen lamp at 2500 lux for 24 hrs (“no light”), used as a control for thermal heating effects on the formation of aggregates); and (4) antibody-IRDye 700DX conjugate placed in a clear glass HPLC tube and exposed to green LED lamp at 2500 lux for 24 hrs (“green light”).
To assess cell killing activity, A431 cells were washed two times with serum free media, and incubated in serum free media alone for one hour at 4° C. The cells were then washed one time with serum free media and incubated with serum free media alone or serum free media containing 1 μg/mL of EGF-IRDye 700DX (“no light”), serum free media containing 1 μg/mL of EGF-IRDye 700DX pre-exposed to white light (“2500 Lux White light”), or serum free media containing 1 μg/mL EGF-IRDye 700DX pre-exposed to green light for one hour at 4° C. (“2500 Lux Green light”). The cells were then washed one time with serum free media.
To induce cell killing, the cells were either protected from light (light dose 0 J/cm^2) or were illuminated with a 690 nm laser with different light dosimetries (8 J/cm^2, 32 J/cm^2 or 64 J/cm^2).

Which extinction coefficient [1] does the source give for Photofrin® here?
The extinction coefficient was 1200 M⁻¹ cm⁻¹.

With “cetuximab: anti-EGFR antibody cetuximab (Erbitux), not conjugated” as the compound, how does the “AUC0-∞” value [2] read?
The value was 24,740 μg/mL*h.

With `C=Cc1c(C)c2cc3nc(c(CC(=O)N[C@@H](CC(=O)[O-])C(=O)[O-])c4[nH]c(cc5nc(cc1[nH]2)C(C)=C5CC)c(C)c4C(=O)[O-])[C@@H](CCC(=O)[O-])[C@@H]3C.[Na+].[Na+].[Na+].[Na+]` [NPe6/Laserphyrin®, mono-L-aspartylchlorin e6] as the compound, how does the extinction coefficient [1] read?
Its extinction coefficient is 40000 M⁻¹ cm⁻¹.

For “Pan-IRDye 700DX-Alexa-488: panitumunab conjugated both to IRDye 700DX and Alexa Fluor 488”, which cell killing ([3]; 4 J/cm^2 at 690 nm) is on record?
The cell killing was “only marginally effective”.

And the killing [3]?
The killing was 73%.

What about the cell killing ([3]; 16 J/cm^2 at 690 nm) of the same compound?
Its cell killing is “near complete cell killing”.

For Poly I:C, which “CD80 and CD86 expression levels” value (human iDCs) is on record?
The value was “increased CD80 and CD86 expression levels”.

Which extinction coefficient ([1]; 652 nm) does the source give for `Oc1cccc(-c2c3nc(c(-c4cccc(O)c4)c4ccc([nH]4)c(-c4cccc(O)c4)c4nc(c(-c5cccc(O)c5)c5ccc2[nH]5)CC4)C=C3)c1` [Foscan®, meta-tetrahydroxyphenylchlorin] here?
Its extinction coefficient is 22000 M⁻¹ cm⁻¹.

Which cell killing ([3]; 4 J/cm^2 at 690 nm) does the source give for “Pan-IRDye 700DX: anti-human EGFR antibody drug panitumumab conjugated only with IRDye 700DX” here?
Its cell killing is “only marginally effective”.

What about the killing [3] of the same compound?
The killing was 74%.

What about the cell killing ([3]; 16 J/cm^2 at 690 nm) of the same compound?
The cell killing was “near complete cell killing”.

For “EGF-IRDye 700DX: human recombinant epidermal growth factor (EGF) conjugated to IRDye 700DX (NSDSECPLSHDGYCLHDGVCMYIEALDKYACNCVVGYIGERCQYRDLKWWELR; Epidermal growth factor IRDye 700DX dye; UniProt P01133 971-1023, looked up)”, which cell killing (A431 cells; 1 μg/mL, 32 J/cm^2 vs no light) is on record?
The cell killing was “light-dependent killing”.

What about the cell killing (A431 cells; cells pre-exposed to 100 μg/mL unconjugated cetuximab) of the same compound?
The cell killing was “blocked light-dependent cell killing”.

What about the light-dependent killing (A431 cells; conjugate pre-exposed to green light, 2500 lux) of the same compound?
Its light-dependent killing is “exhibited light-dependent killing activity comparable”.

And the light-dependent killing (A431 cells; conjugate pre-exposed to white light, 2500 lux)?
The light-dependent killing was “no longer exhibited light-dependent killing activity”.

And the light-dependent killing (A431 cells; conjugate protected from light under halogen lamp)?
The light-dependent killing was “exhibited light-dependent killing”.
